Reference: patent EP1198478B1, “SOMATOSTATIN ANALOGS AND THEIR USE FOR THE TREATMENT OF CANCER” (Dabur Research Foundation, priority 2000, dated 2002)
Where “and” joins values, the source holds several entries; their conditions need not be identical. Equal values may be shown once.

Columns and labels:
[1] = test system: KB (Oral squamous); assay: MTT cytotoxicity assay, KB cells; format: cell-based; conditions: 48 hours
Text: (§1) The cytotoxic effect of peptides SEQ ID NO: 2, SEQ ID NO: 3, SEQ ID NO: 6, and SEQ ID NO: 9, was studied by MTT assay which is based on the principle of uptake of MTT [3-[4,5-dimethylthiazol-2-yl]-2,5-diphenyl tetrazolium bromide], a tetrazolium salt by the metabolically active cells where it is metabolized by active mitochondria into a blue colored formazan product which can be read spectrophotometrically. Briefly, tumor cells PTC (primary human colon cancer cell line), KB (Oral squamous), U87MG (Glioblastoma), HBL100 (Breast), HeP2 (Laryngeal), ECV304 (Endothelial), PA-1 (Ovary) and L132 (Lung) were incubated with the peptide analogs for 48 hours at 37°C in a 96-well culture plate, followed by the addition of 100 µg MTT and further incubation of 1 hour. The formazan crystals formed inside the cells were dissolved with a detergent comprising 10% Sodium dodecyl sulfate and 0.01 N HCl and optical density read on a multiscan ELISA reader. The optical density was directly proportional to the number of proliferating and metabolically active cells.

[2] = test system: U87MG (Glioblastoma); assay: MTT cytotoxicity assay, U87MG cells; format: cell-based; conditions: 48 hours
Text: as §1

[3] = test system: HBL100 (Breast); assay: MTT cytotoxicity assay, HBL100 cells; format: cell-based; conditions: 48 hours
Text: as §1

[4] = test system: HeP2 (Laryngeal); assay: MTT cytotoxicity assay, HeP2 cells; format: cell-based; conditions: 48 hours
Text: as §1

[5] = test system: L132 (Lung); assay: MTT cytotoxicity assay, L132 cells; format: cell-based; conditions: 48 hours
Text: as §1

[6] = test system: PA-1 (Ovary); assay: MTT cytotoxicity assay, PA-1 cells; format: cell-based; conditions: 48 hours
Text: as §1

[7] = test system: ECV304 (Endothelial); assay: MTT cytotoxicity assay, ECV304 cells; format: cell-based; conditions: 48 hours
Text: as §1

[8] = test system: PTC (primary human colon cancer cell line); assay: MTT cytotoxicity assay, PTC cells; format: cell-based; conditions: 48 hours
Text: as §1

[9] = test system: human colon adenocarcinoma (PTC) xenografts; assay: In vivo antitumor activity on primary tumor (colon) xenografted mice; parameters: species or system Balb/c athymic mice; conditions: for tumor volumes, Avg: average of three animals; for tumor volumes of individual tumor bearing animals: individual animals (IV, V, VI for SEQ ID NO: 2; I, II, III for SEQ ID NO: 3)
Procedure: The antitumor activity of SEQ ID NO:2 and SEQ ID NO:3 was studied in human colon adenocarcinoma (PTC) xenografts in nude mice. PTC tumor xenografts were grown in Balb/c athymic mice by subcutaneous inoculation of a single cell suspension of PTC cells (15 X10^6 cells/ 100µl). The tumor bearing animals were divided into 3 groups of three animals each including one group comprising untreated control animals. Treatment with novel somatostatin analogs was initiated when the average tumor volumes, as measured using a vernier caliper, were between 400-800 mm^3. Solutions of SEQ ID NO:2 and SEQ ID NO:3 were prepared at a concentration of 85 µg/ml and intravenously administered to the assigned group of tumor bearing animals at a dose of 8.5 µg/100 µl twice a day so that the total dose of […] was administered to each animal. The treatment was continued for a period of 10 days.
The antitumor activity of the compounds was monitored by measuring tumor volumes every fourth day using the formula W*W*L*.04 (W = smaller diameter, L = larger diameter). The percentage inhibition of tumor growth was calculated using the formula (1-tumor volume-treated/tumor volume control)* 100.

[10] = day 9, intravenously 8.5 µg/100 µl twice a day, 10 days
[11] = day 13, intravenously 8.5 µg/100 µl twice a day, 10 days
[12] = day 18, intravenously 8.5 µg/100 µl twice a day, 10 days
[13] = day 21, intravenously 8.5 µg/100 µl twice a day, 10 days

“D-Phe-Cys-Tyr-D-Trp-Orn-Aib-Pen-Thr-NH2 [SEQ ID NO: 9]” gave a Percentage cytotoxicity ([1]; 1nM) of 28.0 ± 1.6%, a Percentage cytotoxicity ([1]; 10 nM) of 27.0 ± 4.8% and a Percentage cytotoxicity ([1]; 1µM) of 12.0 ± 1.2%. It also gave a Percentage cytotoxicity ([1]; 100n M) of 18.0 ± 5.2%, a Percentage cytotoxicity ([2]; 1nM) of 13.9 ± 2.5% and a Percentage cytotoxicity ([2]; 10 nM) of 29.7 ± 2.4%. It also gave a Percentage cytotoxicity ([2]; 1µM) of 42.9 ± 1.2%, a Percentage cytotoxicity ([2]; 100n M) of 53.3 ± 1.4% and a Percentage cytotoxicity ([3]; 1nM) of 26.9 ± 2.6%. The Percentage cytotoxicity ([3]; 10 nM) was 23.9 ± 4.4%, the Percentage cytotoxicity ([3]; 1µM) was 7.9 ± 1.2% and the Percentage cytotoxicity ([3]; 100n M) was 14.9 ± 2.2%. It also gave a Percentage cytotoxicity ([4]; 1nM) of 15.6 ± 3.6%, a Percentage cytotoxicity ([4]; 10 nM) of 21.4 ± 4.4% and a Percentage cytotoxicity ([4]; 1µM) of 19.9 ± 2.4%. For the same substance, the Percentage cytotoxicity ([4]; 100n M) was 27.9 ± 2.5%, the Percentage cytotoxicity ([5]; 1nM) was 14.9 ± 2.6% and the Percentage cytotoxicity ([5]; 10 nM) was 26.1 ± 4.8%. It also gave a Percentage cytotoxicity ([5]; 1µM) of 12.9 ± 1.8%, a Percentage cytotoxicity ([5]; 100n M) of 22.8 ± 2.6% and a Percentage cytotoxicity ([6]; 1nM) of 4.6 ± 1.0%. The Percentage cytotoxicity ([6]; 10 nM) was 12.8 ± 1.4%, the Percentage cytotoxicity ([6]; 1µM) was 16.6 ± 3.1% and the Percentage cytotoxicity ([6]; 100n M) was 22.7 ± 2.2%. The Percentage cytotoxicity ([7]; 1nM) was 18.0 ± 2.9%, the Percentage cytotoxicity ([7]; 10 nM) was 23.9 ± 3.1% and the Percentage cytotoxicity ([7]; 1µM) was 12.9 ± 1.6%. The Percentage cytotoxicity ([7]; 100n M) was 19.9 ± 2.6%.
Work on “D-Phe-Cys-Tyr-D-Trp-Orn-Deg-Pen-Thr-NH2 [SEQ ID NO: 2]” yielded a Percentage cytotoxicity ([8]; 1nM) of 40 ± 0.5%, a Percentage cytotoxicity ([8]; 10 nM) of 14 ± 2.9% and a Percentage cytotoxicity ([8]; 1µM) of 9.0 ± 3.2%. For the same substance, the Percentage cytotoxicity ([8]; 100n M) was 20 ± 1.5%, the Percentage cytotoxicity ([1]; 1nM) was 28.0 ± 3.2% and the Percentage cytotoxicity ([1]; 10 nM) was 34.9 ± 4.6%. It also gave a Percentage cytotoxicity ([1]; 1µM) of 12.0 ± 4.3%, a Percentage cytotoxicity ([1]; 100n M) of 19.0 ± 5.2% and a Percentage cytotoxicity ([2]; 1nM) of 22.8 ± 3.5%. For the same substance, the Percentage cytotoxicity ([2]; 10 nM) was 41.9 ± 2.4%, the Percentage cytotoxicity ([2]; 1µM) was 33.9 ± 1.2% and the Percentage cytotoxicity ([2]; 100n M) was 39.5 ± 1.4%. The Percentage cytotoxicity ([3]; 1nM) was 19.4 ± 4.5%, the Percentage cytotoxicity ([3]; 10 nM) was 22.8 ± 1.8% and the Percentage cytotoxicity ([3]; 1µM) was 10.6 ± 1.4%. It also gave a Percentage cytotoxicity ([3]; 100n M) of 15.7 ± 3.5%, a Percentage cytotoxicity ([4]; 1nM) of 14.9 ± 3.2% and a Percentage cytotoxicity ([4]; 10 nM) of 29.7 ± 4.4%. The Percentage cytotoxicity ([4]; 1µM) was 10.0 ± 2.4%, the Percentage cytotoxicity ([4]; 100n M) was 13.0 ± 3.5% and the Percentage cytotoxicity ([5]; 1nM) was 12.7 ± 2.9%. It also gave a Percentage cytotoxicity ([5]; 10 nM) of 23.4 ± 4.2%, a Percentage cytotoxicity ([5]; 1µM) of 17.7 ± 5.5% and a Percentage cytotoxicity ([5]; 100n M) of 22.8 ± 4.6%. It also gave a Percentage cytotoxicity ([6]; 1nM) of 29.5 ± 24%, a Percentage cytotoxicity ([6]; 10 nM) of 27.9 ± 3.4% and a Percentage cytotoxicity ([6]; 1µM) of 12.8 ± 3.3%. The Percentage cytotoxicity ([6]; 100n M) was 22.9 ± 2.3%, the Percentage cytotoxicity ([7]; 1nM) was 22.8 ± 3.9% and the Percentage cytotoxicity ([7]; 10 nM) was 19.8 ± 3.3%. The Percentage cytotoxicity ([7]; 1µM) was 6.0 ± 2.9%, the Percentage cytotoxicity ([7]; 100n M) was 14.9 ± 2.9% and the “tumor volumes, Avg” value ([9]; day 0, before treatment) was 0 mm^3. The “tumor volumes of individual tumor bearing animals” value ([9]; day 0, before treatment) was 0 mm^3, the “tumor volumes, Avg” value [9, 10] was 654 mm^3 and the “tumor volumes of individual tumor bearing animals” value [9, 10] was 480 mm^3 and 678 mm^3 and 806 mm^3. For the same substance, the “tumor volumes, Avg” value [9, 11] was 1927 mm^3, the “tumor volumes of individual tumor bearing animals” value [9, 11] was 1254 mm^3 and 2196 mm^3 and 2333 mm^3 and the “tumor volumes, Avg” value [9, 12] was 3886 mm^3. For the same substance, the “tumor volumes of individual tumor bearing animals” value [9, 12] was 1965 mm^3 and 5240 mm^3 and 4453 mm^3, the “percentage inhibition of tumor growth” value ([9]; day 21, as compared to controls, (1-tumor volume-treated/tumor volume control)* 100, intravenously 8.5 µg/100 µl twice a day, 10 days) was 57.1% and the “tumor volumes, Avg” value [9, 13] was 3860 mm^3. For the same substance, the “tumor volumes of individual tumor bearing animals” value [9, 13] was 491 mm^3 and 4839 mm^3 and 6250 mm^3.
